Measurements reported in patent publication US20240238363A1 (priority 2020, published 2024).

Key:
CXCR4 [1] = biological target: CXCR4 (Mus musculus, UniProt P70658); settings: FIG. 2A; CXCR4 tropic gp120; cultured mouse hippocampal neurons
Description: (§1) Aβd/t was isolated from medium of cultured 7PA2 cells, a CHO cell line expressing a form of human APP found in Familial AD. The amount of ABd/t is quantified by Western blot with standards of synthetic Aβ monomer. Neuronal cultures, fixation, permeabilization, blocking and immunostaining is performed starting with E16.5 mouse hippocampal neurons by common methods in broad use.
(§2) Images of fixed neurons immunostained for cofilin, growth cones and nuclei captured across the entire coverslip are exported to ImageJ. Macro functions are applied to set local threshold and shape/size segmentation for both the cofilin and growth cone antibodies. Cofilin stained material that is not within neurites is eliminated. Results are reported as rods/nucleus, number of rods per area, rods as percent of total area, or, if NeuN stained or identified morphologically, rods per neuron.

CXCR4 [2] = settings: in vivo; cited from earlier work
[3] = tested on: dendritic spine morphology, dendritic arborization and functional deficits; settings: animal model of HIV cognitive decline; cited from earlier work
[4] = tested on: cognitive deficits in HAND; settings: phase 2 human trials and brain scans; cited from earlier work
[5] = tested on: cofilin rods in cultured mouse hippocampal neurons; assay type: cell-based
Description: as §1, §2
(§3) Amyloid beta (Aβ) trimer was added to pure cultures of mouse hippocampal neurons, devoid of immune cells, microglia, and their secreted inflammatory mediators to evaluate actin dynamics and cofilin-rod formation. […] The relevance is that rod pathology leads to synapse loss in people that correlates with dementia.

[6] = tested on: growth cones in pure cultures of mouse hippocampal neurons; settings: FIG. 5; Aβ trimer-treated neurons, 2G13 antibody stain
Description: as §1, §2, §3

CCR5 [7] = biological target: T1, CCR5 (Mus musculus, UniProt P51682); settings: pharmacologic blockade of CCR5; cited from earlier work
T1 sequence (P51682 whole entry): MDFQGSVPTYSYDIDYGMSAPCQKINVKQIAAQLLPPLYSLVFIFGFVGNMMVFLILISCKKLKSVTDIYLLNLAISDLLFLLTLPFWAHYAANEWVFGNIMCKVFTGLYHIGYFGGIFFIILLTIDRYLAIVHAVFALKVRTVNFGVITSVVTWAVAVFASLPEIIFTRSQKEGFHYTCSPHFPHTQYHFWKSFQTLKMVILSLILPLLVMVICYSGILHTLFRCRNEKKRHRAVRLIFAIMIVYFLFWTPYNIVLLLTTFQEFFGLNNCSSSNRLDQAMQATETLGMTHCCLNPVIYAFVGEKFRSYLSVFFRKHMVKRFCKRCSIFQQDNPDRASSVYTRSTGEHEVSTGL

CCR5 [8] = biological target: T1, CCR5; settings: FIG. 2A; CCR5 tropic gp120; cultured mouse hippocampal neurons
Description: as §1, §2

Chain of CXCR4 (Mus musculus, UniProt P70658) (P70658 whole entry): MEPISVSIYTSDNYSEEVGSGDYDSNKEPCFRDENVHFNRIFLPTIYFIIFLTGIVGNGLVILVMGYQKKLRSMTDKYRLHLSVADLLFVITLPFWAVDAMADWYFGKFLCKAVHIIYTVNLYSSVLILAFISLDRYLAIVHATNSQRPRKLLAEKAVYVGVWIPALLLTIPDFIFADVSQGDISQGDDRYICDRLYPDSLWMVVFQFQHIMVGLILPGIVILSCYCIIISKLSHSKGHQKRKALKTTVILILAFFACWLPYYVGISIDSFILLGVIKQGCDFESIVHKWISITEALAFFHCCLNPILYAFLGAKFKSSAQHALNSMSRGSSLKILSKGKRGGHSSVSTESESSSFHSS

## c1cc(CN2CCCNCCNCCCNCC2)ccc1CN1CCCNCCNCCCNCC1 [AMD3100]
CXCR4 [1]
  inhibition of gp120-induced cofilin-rod formation through CXCR4: inhibited
CXCR4 [2]
  recovery after traumatic brain injury: improved recovery

## Dala1-peptide T-amide [DAPTA]
[3]
  dendritic spine morphology, dendritic arborization and functional deficits: protection of dendritic spine morphology, expansion of dendritic arborization and reversal of functional deficits
[4]
  cognitive deficits in HAND: able to reverse cognitive deficits

## all-D-ASTTTNYT [RAP-310]
[5]
  block Aβ-induced formation of cofilin rods (percent of neurons expressing cofilin-rods): block
  block TNF-induced formation of cofilin rods: block

## all-D-TTNYT [RAP-103]
[6]
  growth cone formation: promote growth cone formation
[5]
  area within the neurons occupied by cofilin-rods, caused by amyloid beta (Aβ): reducing
  area within the neurons occupied by cofilin-rods, caused by pre-formed fibrils (PPF) of alpha-synuclein: reducing
  block Aβ-induced formation of cofilin rods (percent of neurons expressing cofilin-rods): block
  block TNF-induced formation of cofilin rods: block
  cofilin rod-like structures at the ends of dendrites: eliminated

## maraviroc
CCR5 [7]
  dendritic spines and neurite cortical projections after stroke and traumatic brain injury: preservation of dendritic spines and new patterns of neurite cortical projections
CCR5 [8]
  inhibition of gp120-induced cofilin-rod formation through CCR5: inhibited
[5]; FIG. 2B, blocking neuronal CCR5
  early pathology of synapse loss (cofilin-rod formation) induced by beta-amyloid (Aβ-trimer/dimer): can be reversed
